Measured values as given in patent publication US20050215490A1, “Polyene polyketides and methods of treating bacterial infections” (Ecopia BioSciences, Inc., priority 2003, published 2005).
Values after ≈ are worked out from the molar mass of the structure shown. Read-outs that look alike come from different tables or passages of the source.

Key:
Assay type in all cases: cell-based
in vitro = settings: sheep
Protocol: A. Toxicity: Acute toxicities were determined using CD-1 female mice (supplied by Charles River Laboratories, Wilmington, Mass.) having a bodyweight of 18-25 g, and about 6 weeks of age. Compounds 1 and 2 at doses ranging from 1 to 70 mg/kg (formulated in 20% propylene glycol/water for a total volume of 10 μL/g of weight) were administered intraperitoneal (i.p.) and intravenous (i.v.) to groups of 5 mice (5 mice per concentration, per mode of administration). Two groups of 3 mice were injected with vehicle only. Mice were observed immediately after injection, within 4 hours and once a day for the subsequent days. Acute toxicity studies of Compound 1 in mice indicated no observable effect and high dose tolerability: 70 mg/kg intraperitoneal and 50 mg/kg intravenous (an MTD of 250 mg/kg was also determined by oral administration). […] In vitro Haemolytic activity results are also shown in Table 7, along with the in vivo toxicity and efficacy of Compound 1.

[1] = system: Staphylococcus aureus NRRL B-313 (ATCC™ 6538P); assay: MIC at different pH
Protocol: Antibacterial activitiy of Compounds.3, 4, 5, 6 and 7 are accomplished using the same method in a panel of bacterial strains and Vancomycin as positive control.
Antibacterial efficacy of Compounds 1, 2, 3, 4, 5 and 6 on bacterial strain Staphylococcus aureus NRRL B-313 (ATCC™ 6538P) was determined at different pH concentrations.

[2] = system: Staphylococcus aureus (ATCC™ 6538P); assay: MIC, broth microdilution (NCCLS M7-A5); settings: ATCC6538P, 18 h
Protocol: (§1) Antibacterial activity of Compounds 1 and 2 (Table 4) was measured by determining the minimal inhibitory concentration (MIC) necessary to obtain a complete inhibition of bacteria growth in eight indicator strains, namely Staphylococcus aureus (ATCC™ 6538P), Staphylococcus aureus MRS3 (ATCC™ 700699), Staphylococcus epidermidis (ATCC™ 12228), Bacillus subtilis (ATCC™ 23857), Bacillus megaterium (ATCC™ 14581), Enterococcus faecalis VRE-1 (ATCC™ 29212), Enterococcus faecalis VRE-2 (ATCC™ 51299) and Micrococcus luteus (ATCC™ 9341). Indicator strains preparation and MIC determination were performed according to the National Committee for Clinical Laboratory Standards (NCCLS) guideline M7-A5 Methods for Dilution Antimicrobial Susceptibility Tests for Bacteria That Grow Aerobically; Approved Standard-Fifth Edition. (NCCLS document M7-A5, ISBN 1-56238-394-9; NCCLS, 940 West Valley Road, Suite 1400, Wayne, Pa. 19087-1898 USA), the content of which is incorporated herein by reference.
(§2) Compounds 1 and 2 were prepared as 100× stock solution in DMSO, with concentrations ranging from 3.2 mg/ml to 0.00625 mg/ml (a two-fold dilution series over […]). An aliquot of each 100× stock solution was diluted 50-fold in test medium described below to give a set of ten (10) 2× solutions ranging from 64 to 0.125 μg/mL. 50 μl of each of the ten 2× solutions was aliquoted into the corresponding well of a 12-well row, with the final well reserved for medium alone control. Each test was made in duplicate.
(§3) Vancomycin (Sigma™) used as positive control compounds, was prepared as 2× stock solutions in sterile, double-distilled water (ddH2O) ranging from 64 μg/ml to […] (a two-fold dilution series over 10 points). An aliquot of 50 μl corresponding to each concentration (at 2×) was then transferred to 96-well microplates to obtain a series of eleven two-fold dilutions.
(§4) An isolated colony of each of the eight indicator strains was used to inoculate tubes containing 3 ml of test medium. Mueller-Hinton test medium was used for Staphylococcus aureus (ATCC™ 6538P), Staphylococcus aureus MRS3 (ATCC™ 700699), Staphylococcus epidermidis (ATCC™ 12228), Bacillus subtilis (ATCC™ 23857), Bacillus megaterium (ATCC™ 14581) and Micrococcus luteus (ATCC™ 9341) indicator strains, and BHI (Brain-Heart Infusion broth) test medium was used for Enterococcus faecalis VRE-1 (ATCC™ 29212) and Enterococcus faecalis VRE-2 (ATCC™ 51299) indicator strains. Cells were grown overnight at 28° C. with shaking. Inoculum density for each indicator strain was adjusted to OD600=0.1 in 5 ml 0.85% saline, then further diluted 1/100 in appropriate medium. 50 μl of the final dilution (in test medium) of each indicator strain was added to each well of a 12-well row. This brings the final dilution of the test article or control compound in solution to 1×. The final inoculum is approximately 5×10^5 CFU/ml.
(§5) The indicator strains were incubated with 11 concentrations of each of Compounds 1 and 2, Vancomycin (Sigma™) control compound and one media alone control. For MIC determination, assay plates were incubated at 35° C. for 18 hours.

[3] = system: Micrococcus luteus (ATCC™ 9341); assay: MIC, broth microdilution (NCCLS M7-A5); settings: ATCC9341, 18 h
Protocol: as §1, §2, §3, §4, §5

[4] = system: Enterococcus faecalis VRE-2 (ATCC™ 51299); assay: MIC, broth microdilution (NCCLS M7-A5); settings: 18 h
Protocol: as §1, §2, §3, §4, §5

[5] = system: Staphylococcus aureus MRS3 (ATCC™ 700699); assay: MIC, broth microdilution (NCCLS M7-A5); settings: ATCC700699, 18 h
Protocol: as §1, §2, §3, §4, §5

[6] = system: Staphylococcus epidermidis (ATCC™ 12228); assay: MIC, broth microdilution (NCCLS M7-A5); settings: ATCC12228, 18 h
Protocol: as §1, §2, §3, §4, §5

[7] = system: Bacillus subtilis (ATCC™ 23857); assay: MIC, broth microdilution (NCCLS M7-A5); settings: ATCC23857, 18 h
Protocol: as §1, §2, §3, §4, §5

[8] = system: Bacillus megaterium (ATCC™ 14581); assay: MIC, broth microdilution (NCCLS M7-A5); settings: Priestia megaterium, ATCC14581, 18 h
Protocol: as §1, §2, §3, §4, §5

[9] = system: Enterococcus faecalis VRE-1 (ATCC™ 29212); assay: MIC, broth microdilution (NCCLS M7-A5); settings: 18 h
Protocol: as §1, §2, §3, §4, §5

[10] = S. aureus ATCC 6538P, pH 5.0, read-out: MIC
[11] = S. aureus ATCC 6538P, pH 6.0, read-out: MIC
[12] = S. aureus ATCC 6538P, pH 7.0, read-out: MIC

Compound | MIC [1, 10] [µg/mL] | MIC [1, 11] [µg/mL] | MIC [1, 12] [µg/mL] | further results
C[C@@H]1[C@H](O)[C@@H](C)/C=C/C=C/C=C/C=C/C=C/C=C/C=C/[C@H](O[C@@H]2O[C@H](C)[C@@H](O)[C@H](N)[C@@H]2O)C[C@@H]2O[C@](O)(C[C@@H](O)C[C@@H](O)[C@H](O)CC[C@@H](O)C[C@@H](O)CC(=O)O[C@H]1C)C[C@H](O)[C@H]2C(=O)O [Amphotericin, reference compound] |  |  |  | EC50 (in vitro): 3 µg/mL (≈ 3.25 µM)
C\C(=C/C=C/C=C/C=C/C=C/C(C)C(OC1OC(C(=O)O)C(O)C(O)C1O)/C(C)=C/C(C)CCC/C=C/C(C)C/C=C/CCCN(C)C(=N)N)C(=O)O (stereo not shown) [Compound 7, 6-[1-(11-carboxy-1-methyldodeca-2,4,5,8,10-pentaenyl)-2,4,10-trimethyl-16-(N-methylguanidino)-hexadeca-2,8,12-trienyloxy]-3,4,5-trihydroxy-tetrahydropyran-2-carboxylic acid] |  |  | 32 to 64 (≈ 43.1 to 86.3 µM) | 
CN[C@H](CC(C)C)C(=O)N[C@H]1C(=O)N[C@@H](CC(N)=O)C(=O)N[C@H]2C(=O)N[C@H]3C(=O)N[C@H](C(=O)N[C@H](C(=O)O)c4cc(O)cc(O)c4-c4cc3ccc4O)[C@H](O)c3ccc(c(Cl)c3)Oc3cc2cc(c3O[C@@H]2O[C@H](CO)[C@@H](O)[C@H](O)[C@H]2O[C@H]2C[C@](C)(N)[C@H](O)[C@H](C)O2)Oc2ccc(cc2Cl)[C@H]1O [Vancomycin, reference compound] |  |  |  | MIC ([1]; pH 5): 1 µg/mL (≈ 0.69 µM); MIC ([1]; pH 6): 1 µg/mL (≈ 0.69 µM); MIC ([1]; pH 7): 1 µg/mL (≈ 0.69 µM); MIC [2]: 2 µg/mL (≈ 1.38 µM); MIC [3]: 1 µg/mL (≈ 0.69 µM); MIC [4]: 8 to 16 µg/mL (≈ 5.52 to 11 µM); MIC [5]: 4 µg/mL (≈ 2.76 µM); MIC [6]: 2 µg/mL (≈ 1.38 µM); MIC [7]: 0.25 µg/mL (≈ 0.173 µM); MIC [8]: 0.125 µg/mL (≈ 0.0863 µM); MIC [9]: 4 µg/mL (≈ 2.76 µM)

The next lines start with results.

MIC [1, 10] [µg/mL] | MIC [1, 11] [µg/mL] | MIC [1, 12] [µg/mL] | Compound | further results
2 (≈ 2.35 µM) | 4 to 8 (≈ 4.7 to 9.4 µM) | 16 (≈ 18.8 µM) | COC(=O)C1OC(OC(/C(C)=C/C(C)CCC/C=C/C(C)C/C=C/CCCN(C)C(=N)N)C(C)/C=C/C=C/C=C/C=C/C=C(\C)C(=O)NC2=C(O)CCC2=O)C(O)C(O)C1O (stereo not shown) [Compound 3, 3,4,5-trihydroxy-6-[1-[11-(2-hydroxy-5-oxocyclopent-1-enylcarbamoyl)-1-methyldodeca-2,4,6,8,10-pentaenyl]-2,4,10-trimethyl-16-(N-methyl-guanidino)-hexadeca-2,8,12-trienyloxy]-tetrahydropyran-2-carboxylic acid methyl ester] | 
2 (≈ 2.35 µM) | 2 (≈ 2.35 µM) | 2 (≈ 2.35 µM) | COC1=C(NC(=O)/C(C)=C/C=C/C=C/C=C/C=C/C(C)C(OC2OC(C(=O)O)C(O)C(O)C2O)/C(C)=C/C(C)CCC/C=C/C(C)C/C=C/CCCN(C)C(=N)N)C(=O)CC1 (stereo not shown) [Compound 4, 3,4,5-trihydroxy-6-[1-[11-(2-methoxy-5-oxo-cyclopent-1-enylcarbamoyl)-1-methyldodeca-2,4,6,8,10-pentaenyl]-2,4,10-trimethyl-16-(N-methyl-guanidino)-hexadeca-2,8,12-trienyloxy]-tetrahydropyran-2-carboxylic acid] | 
2 (≈ 2.31 µM) | 4 (≈ 4.62 µM) | 4 (≈ 4.62 µM) | COC(=O)C1OC(OC(C(C)=CC(C)CCCC=CC(C)CC=CCCCN(C)C(=N)N)C(C)C=CC=CC=CC=CC=C(C)C(=O)NC2=C(OC)CCC2=O)C(O)C(O)C1O (stereo not shown) [Compound 5, 3,4,5-trihydroxy-6-[1-[11-(2-methoxy-5-oxo-cyclopent-1-enylcarbamoyl)-1-methyldodeca-2,4,6,8,10-pentaenyl]-2,4,10-trimethyl-16-(N-methyl-guanidino)-hexadeca-2,8,12-trienyloxy]-tetrahydropyran-2-carboxylic acid methyl ester] | 
0.25 (≈ 0.284 µM) | 0.5 (≈ 0.569 µM) | 2 (≈ 2.28 µM) | CC(=O)NC(=N)N(C)CCC/C=C/CC(C)/C=C/CCCC(C)/C=C(\C)C(OC1OC(C(=O)O)C(O)C(O)C1O)C(C)/C=C/C=C/C=C/C=C/C=C(\C)C(=O)NC1=C(O)CCC1=O (stereo not shown) [Compound 6, 6-{16-(N′-acetyl-N-methylguanidino)-1-[11-(2-hydroxy-5-oxocyclopent-1-enylcarbamoyl)-1-methyldodeca-2,4,6,8,10-pentaenyl]-2,4,10-trimethylhexadeca-2,8,12-trienyloxy}-3,4,5-trihydroxytetrahydropyran-2-carboxylic acid] | 
